Molecular target: T1, Acetylcholinesterase (Mus musculus, UniProt P21836)
T1 sequence (P21836 whole entry): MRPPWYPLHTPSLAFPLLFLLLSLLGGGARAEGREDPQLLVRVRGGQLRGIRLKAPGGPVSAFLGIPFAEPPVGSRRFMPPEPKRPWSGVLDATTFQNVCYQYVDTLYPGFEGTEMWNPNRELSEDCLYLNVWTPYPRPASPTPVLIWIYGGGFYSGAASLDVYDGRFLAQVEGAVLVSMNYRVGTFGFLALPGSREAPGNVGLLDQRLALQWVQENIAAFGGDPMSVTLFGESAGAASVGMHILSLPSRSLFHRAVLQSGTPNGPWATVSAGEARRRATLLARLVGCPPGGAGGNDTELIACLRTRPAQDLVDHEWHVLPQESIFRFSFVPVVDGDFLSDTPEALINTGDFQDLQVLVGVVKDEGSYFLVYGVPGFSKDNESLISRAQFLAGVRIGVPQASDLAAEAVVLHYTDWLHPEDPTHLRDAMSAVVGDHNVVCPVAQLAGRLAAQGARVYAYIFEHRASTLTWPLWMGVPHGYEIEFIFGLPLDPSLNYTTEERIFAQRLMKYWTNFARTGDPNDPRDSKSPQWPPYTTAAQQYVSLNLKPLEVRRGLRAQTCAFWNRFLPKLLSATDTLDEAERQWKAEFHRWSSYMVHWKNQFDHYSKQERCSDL
Assay: Inhibition of wild type mouse AChE expressed in HEK293 cells using ATCh as substrate
Format: cell-based

For CC[N+](C)(CC)CCC[n+]1c(-c2ccccc2)c2cc(N)ccc2c2ccc(N)cc21 [PROPIDIUM], the IC50 was 1.1 µM.

Molecular target: T1, Acetylcholinesterase

For C/C=C1\[C@H]2C=C(C)C[C@]1(N)c1ccc(=O)[nH]c1C2 [HUPERZINE A], the IC50 was 0.082 µM.

Molecular target: T1, Acetylcholinesterase
Assay: Inhibition of mouse recombinant AChE using acetylthiocholine iodide as substrate by Ellman's method

First: CCN(CC)CCNS(=O)(=O)c1ccccc1
Second: CCN(CC)CCNS(=O)(=O)Cc1ccccc1
The IC50 of the first is 4.5-fold lower: 31 µM for the first, 139 µM for the second.

CCN(CC)CCNS(=O)(=O)c1cccc(C(F)(F)F)c1 and CCN(CC)CCNS(=O)(=O)c1cccc(Cl)c1 are within 1.5-fold of each other in IC50: 22 µM for the first, 18 µM for the second.

Compared with CCN(CC)CCNS(=O)(=O)c1ccc(-c2ccc(Cl)cc2)cc1, CCN(CC)CCNS(=O)(=O)c1ccc(Cl)cc1 is lower in IC50: > 700 µM for the first, 88 µM for the second.

Going from CCN(CC)CCNS(=O)(=O)c1cccc(OC)c1 to CCN(CC)CCNS(=O)(=O)c1ccc(OC)cc1, the IC50 rises from 7 µM to 119 µM (17-fold). The first is the more potent here.

First: CCN(CC)CCNS(=O)(=O)c1ccccc1F
Second: CCN(CC)CCNS(=O)(=O)c1ccc(Cl)cc1F
The IC50 of the first is 2.2-fold lower: 41 µM for the first, 91 µM for the second.

CCN(CC)CCNS(=O)(=O)Cc1ccc(Br)cc1 and CCN(CC)CCNS(=O)(=O)Cc1ccc(Cl)cc1 are within 1.5-fold of each other in IC50: 10 µM for the first, 12 µM for the second.

First: CCN(CC)CCNS(=O)(=O)c1ccc(F)cc1
Second: CCN(CC)CCNS(=O)(=O)c1ccc(C)cc1
The IC50 of the first is 2.2-fold lower: 62 µM for the first, 135 µM for the second.

Going from CCN(CC)CCNS(=O)(=O)c1ccc([N+](=O)[O-])cc1 to CCN(CC)CCNS(=O)(=O)c1ccc2ccccc2c1, the IC50 rises from 95 µM to > 700 µM. The first is the more potent here.

Going from CCN(CC)CCNS(=O)(=O)Cc1ccc(Cl)c(Cl)c1 to CCN(CC)CCNS(=O)(=O)Cc1ccc(F)cc1, the IC50 rises from 7 µM to 40 µM (5.7-fold). The first is the more potent here.

CCN(CC)CCNS(=O)(=O)c1ccc(F)c(F)c1 and CCN(CC)CCNS(=O)(=O)c1cccc2ccccc12 are within 1.5-fold of each other in IC50: 50 µM for the first, 44 µM for the second.

For CCN(CC)CCNS(=O)(=O)Cc1ccc(C(F)(F)F)cc1, the IC50 was 12 µM.

Molecular target: T1, Acetylcholinesterase
Assay: Binding affinity to mouse AChE by isothermal titration calorimetry

In order of falling Kd:
1. CCN(CC)CCNS(=O)(=O)c1cccc(Cl)c1  44.4 µM
2. CCN(CC)CCNS(=O)(=O)c1cccc(C(F)(F)F)c1  14.8 µM
3. CCN(CC)CCNS(=O)(=O)Cc1ccc(Cl)cc1  11.1 µM
4. CCN(CC)CCNS(=O)(=O)Cc1ccc(C(F)(F)F)cc1  9.2 µM

From ChEMBL document CHEMBL3085720, “Divergent structure-activity relationships of structurally similar acetylcholinesterase inhibitors” (J Med Chem, 2013)
